Experimental data as given in patent US20240287124A1, “PRODRUGS OF 4'-SUBSTITUTED NUCLEOSIDE REVERSE TRANSCRIPTASE INHIBITORS” (Merck Sharp & Dohme LLC, priority 2023, published 2024).
Values after ≈ are worked out from the molar mass of the structure shown. Like-named read-outs stand apart in the source and are kept apart here.

Experiments:
[1] = tested on: HIV-1 wild-type (R8) virus; assay: Viral KINetics in Green cells (VIKING) assay, HIV-1 replication in MT4-GFP reporter cells; assay type: cell-based; conditions: Human immunodeficiency virus 1, 10% normal human serum, MT4-GFP cells, HIV-1 wild-type (R8); read-out: Viking (10% NHS), IC50
Summary of the method: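 MT4-GFP cells infected overnight with HIV-1 R8 at MOI ~0.01, then added to compound plates in RPMI with 10% normal human serum; 10-point 3-fold dilutions (typically 4 μM-0.2 nM). Green cells counted at ~48 h and 72 h; reproductive ratio (72 h/48 h) gave % inhibition, IC50 by 4-parameter fit.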

[2] = Plasma stability in frozen human plasma; assay type: in vitro ADME; conditions: frozen human plasma at 37° C., 0-3 hr; read-out: T1/2 Human Plasma (converted)
Method: Plasma stability of the compounds was evaluated in frozen human plasma at 37° C. in a 10% CO2 environment. The stability of the analyte was assessed by determining the percentage of drug loss over the course of 0, 0.25, 0.5, 1, and 3 hr. In addition, the appearance of Compound A was determined for the same time course. Percent of drug loss as based on ratio with internal standard. Analyte concentrations were measured by LC/MS/MS. Linear regression was performed with log transformed percent of average TO values and linear time values. The elimination rate constant (ke) was calculated from the slope of this regression line and the half-life (T½) calculated based on the elimination rate constant.

[3] = Aqueous solubility in PBS, pH 7.4; assay type: physicochemical; conditions: pH 7.4, aqueous buffer, thermodynamic from solid, pH 7.4 phosphate buffered saline, 24 hours, amorphous or crystalline material, read-out: Aqu. Solubility
Summary of the method: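 Excess solid suspended at 0.5 mg/mL in PBS pH 7.4 and stirred 24 hours. Filtrate (0.45 μm) diluted 1:1 with ACN:H2O and quantified by UPLC against a standard curve; residual solid phase checked by XRPD and PLM.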

| half-life [2] | solubility at 24 h ([3]; phosphate buffered saline) | SMILES | IC50 [1] | solubility at 24 h [3] |
| --- | --- | --- | --- | --- |
| < 0.25 h | < 1 µg/mL | C#C[C@]1(COC(=O)C(C)C)O[C@@H](n2ccc3c(N)nc(Cl)nc32)C[C@@H]1OC(=O)C(C)C [Example 42, (2R,3S,5R)-5-(4-amino-2-chloro-7H-pyrrolo[2,3-d]pyrimidin-7-yl)-2-ethynyl-2-((isobutyryloxy)methyl)tetrahydrofuran-3-yl isobutyrate] | 10.9 nM | – |
| 0.036 h | < 1 µg/mL | C#C[C@]1(COC(=O)CCCC)O[C@@H](n2ccc3c(N)nc(Cl)nc32)C[C@@H]1OC(=O)CCCC [Example 7, (2R,3S,5R)-5-(4-amino-2-chloro-7H-pyrrolo[2,3-d]pyrimidin-7-yl)-2-ethynyl-2-((pentanoyloxy)methyl)tetrahydrofuran-3-yl pentanoate] | 2.9 nM | – |
| 16.7 h | 27 µg/mL (≈ 68.7 µM) | C#C[C@]1(CO)O[C@@H](n2ccc3c(N)nc(Cl)nc32)C[C@@H]1OC(=O)CCCC [Example 3, (2R,3S,5R)-5-(4-amino-2-chloro-7H-pyrrolo[2,3-d]pyrimidin-7-yl)-2-ethynyl-2-(hydroxymethyl)tetrahydrofuran-3-yl pentanoate] | 3.7 nM | – |

Further lines, the compound ahead of its results:

| SMILES | half-life [2] | solubility at 24 h ([3]; phosphate buffered saline) | IC50 [1] | solubility at 24 h [3] |
| --- | --- | --- | --- | --- |
| C#C[C@]1(COC(=O)C(CC)CC)O[C@@H](n2ccc3c(N)nc(Cl)nc32)C[C@@H]1O [Example 40, ((2R,3S,5R)-5-(4-amino-2-chloro-7H-pyrrolo[2,3-d]pyrimidin-7-yl)-2-ethynyl-3-hydroxytetrahydrofuran-2-yl)methyl 2-ethylbutanoate] | 1.9 h | 282 µg/mL (≈ 693 µM) | 5.5 nM | – |
| C#C[C@]1(CO)O[C@@H](n2ccc3c(N)nc(Cl)nc32)C[C@@H]1OC(=O)c1ccccc1 [Example 5, (2R,3S,5R)-5-(4-amino-2-chloro-7H-pyrrolo[2,3-d]pyrimidin-7-yl)-2-ethynyl-2-(hydroxymethyl)tetrahydrofuran-3-yl benzoate] | 57.7 h | < 1 µg/mL | 35 nM | – |
| C#C[C@]1(COC(=O)OCCCCC)O[C@@H](n2ccc3c(N)nc(Cl)nc32)C[C@@H]1O [Example 14, ((2R,3S,5R)-5-(4-amino-2-chloro-7H-pyrrolo[2,3-d]pyrimidin-7-yl)-2-ethynyl-3-hydroxytetrahydrofuran-2-yl)methyl pentyl carbonate] | < 0.25 h | 113 µg/mL (≈ 267 µM) | 2.5 nM | – |
| C#C[C@]1(CO[P@@](=O)(N[C@@H](C)C(=O)OC(C)C)Oc2ccccc2)O[C@@H](n2ccc3c(N)nc(Cl)nc32)C[C@@H]1O [Example 8, Isopropyl ((S)-(((2R,3S,5R)-5-(4-amino-2-chloro-7H-pyrrolo[2,3-d]pyrimidin-7-yl)-2-ethynyl-3-hydroxytetrahydrofuran-2-yl)methoxy)(phenoxy)phosphoryl)-L-alaninate] | 13.3 h | – | 42 nM | 304 µg/mL (≈ 526 µM) |
| C#C[C@]1(CO)O[C@@H](n2ccc3c(N)nc(Cl)nc32)C[C@@H]1OC(=O)OC(C)C [Example 1, (2R,3S,5R)-5-(4-amino-2-chloro-7H-pyrrolo[2,3-d]pyrimidin-7-yl)-2-ethynyl-2-(hydroxymethyl)tetrahydrofuran-3-yl isopropyl carbonate] | 19.1 h | 42 µg/mL (≈ 106 µM) | 74 nM | – |
| C#C[C@]1(COC(=O)c2ccccc2)O[C@@H](n2ccc3c(N)nc(Cl)nc32)C[C@@H]1OC(=O)c1ccccc1 [Example 6, (2R,3S,5R)-5-(4-amino-2-chloro-7H-pyrrolo[2,3-d]pyrimidin-7-yl)-2-((benzoyloxy)methyl)-2-ethynyltetrahydrofuran-3-yl benzoate] | 1.1 h | < 1 µg/mL | 44 nM | – |
| C#C[C@]1(CO)O[C@@H](n2ccc3c(N)nc(Cl)nc32)C[C@@H]1OC(=O)C(CC)CC [Example 45, (2R,3S,5R)-5-(4-amino-2-chloro-7H-pyrrolo[2,3-d]pyrimidin-7-yl)-2-ethynyl-2-(hydroxymethyl)tetrahydrofuran-3-yl 2-ethylbutanoate] | 19.4 h | 45 µg/mL (≈ 111 µM) | 143 nM | – |
